Measured values published in patent publication US10118892B2, “Compounds and their synthesis” (UCL BUSINESS PLC, priority 2012, dated 2018).

Key:
[1] = Biodistribution studies: blood and brain uptake of radiotracer over time; format: in vivo, Balb/C or FVB mice; details: mice
Experimental: (§1) A series of radiolabelled tracers was prepared using the reported chemistry and investigated in vivo (Balb/C or FVB mice) by biodistribution studies and/or metabolite analysis. Examples in FIGS. 7-10 highlight the versatility of the reported chemistry that allows for tracers with a variety of backbone structures and side chains. By deliberately modifying chemical moieties the tracer can be fine-tuned towards up-take in tissues of interest, e.g. brain, heart or lungs. FIGS. 11-15 show the results of the in vivo investigation of a potential pro-drug tracer that was developed to monitor the efflux pump P-glycoprotein at the blood-brain barrier.
Female Balb/C mice and FVB mice were obtained from Charles River UK. When used, they were eight to eleven weeks old and weighing approximately 20 g. […]
(§2) The respective radiotracer (0.5-1 MBq formulated in a saline solution containing 5% ethanol) was administered intravenously into the tail vein. […] The organs of interest (blood, colon, stomach, spleen, kidneys, liver, heart, lungs, tail, femur, skull, and brain) were sampled, weighed, and the radioactivity content was measured by automated gamma counting (Cobra Multi Gamma Model 5010-Packard, UK). Results were normalised to the radioactivity found in 1% of the injected dose per gram bodyweight. All experiments were performed in duplicates or triplicates and analysed using Microsoft Office Excel 2007.

[2] = biological target: T1, P-glycoprotein at the blood-brain barrier (Mus musculus, UniProt P21447); assay: Biodistribution with P-glycoprotein activity inhibited by concomitant tariquidar (TQD); format: in vivo, Balb/C or FVB mice; details: mice, with and without TQD (FIG. 15)
T1 construct: investigated in vivo (Balb/C or FVB mice) by biodistribution studies and/or metabolite analysis; tissue Charles River UK; host or cells: living Balb/C or FVB mice; blood-brain barrier / brain
Experimental: as §1, with “barrier. […]” for “barrier.”
as §2
Brains were homogenised in saline (0.5 ml) and ethanol (0.5 ml). […] The flow rate was 1 ml/min and the UV absorbance detector was set at 254 nm. […]

T1 sequence (P21447 whole entry): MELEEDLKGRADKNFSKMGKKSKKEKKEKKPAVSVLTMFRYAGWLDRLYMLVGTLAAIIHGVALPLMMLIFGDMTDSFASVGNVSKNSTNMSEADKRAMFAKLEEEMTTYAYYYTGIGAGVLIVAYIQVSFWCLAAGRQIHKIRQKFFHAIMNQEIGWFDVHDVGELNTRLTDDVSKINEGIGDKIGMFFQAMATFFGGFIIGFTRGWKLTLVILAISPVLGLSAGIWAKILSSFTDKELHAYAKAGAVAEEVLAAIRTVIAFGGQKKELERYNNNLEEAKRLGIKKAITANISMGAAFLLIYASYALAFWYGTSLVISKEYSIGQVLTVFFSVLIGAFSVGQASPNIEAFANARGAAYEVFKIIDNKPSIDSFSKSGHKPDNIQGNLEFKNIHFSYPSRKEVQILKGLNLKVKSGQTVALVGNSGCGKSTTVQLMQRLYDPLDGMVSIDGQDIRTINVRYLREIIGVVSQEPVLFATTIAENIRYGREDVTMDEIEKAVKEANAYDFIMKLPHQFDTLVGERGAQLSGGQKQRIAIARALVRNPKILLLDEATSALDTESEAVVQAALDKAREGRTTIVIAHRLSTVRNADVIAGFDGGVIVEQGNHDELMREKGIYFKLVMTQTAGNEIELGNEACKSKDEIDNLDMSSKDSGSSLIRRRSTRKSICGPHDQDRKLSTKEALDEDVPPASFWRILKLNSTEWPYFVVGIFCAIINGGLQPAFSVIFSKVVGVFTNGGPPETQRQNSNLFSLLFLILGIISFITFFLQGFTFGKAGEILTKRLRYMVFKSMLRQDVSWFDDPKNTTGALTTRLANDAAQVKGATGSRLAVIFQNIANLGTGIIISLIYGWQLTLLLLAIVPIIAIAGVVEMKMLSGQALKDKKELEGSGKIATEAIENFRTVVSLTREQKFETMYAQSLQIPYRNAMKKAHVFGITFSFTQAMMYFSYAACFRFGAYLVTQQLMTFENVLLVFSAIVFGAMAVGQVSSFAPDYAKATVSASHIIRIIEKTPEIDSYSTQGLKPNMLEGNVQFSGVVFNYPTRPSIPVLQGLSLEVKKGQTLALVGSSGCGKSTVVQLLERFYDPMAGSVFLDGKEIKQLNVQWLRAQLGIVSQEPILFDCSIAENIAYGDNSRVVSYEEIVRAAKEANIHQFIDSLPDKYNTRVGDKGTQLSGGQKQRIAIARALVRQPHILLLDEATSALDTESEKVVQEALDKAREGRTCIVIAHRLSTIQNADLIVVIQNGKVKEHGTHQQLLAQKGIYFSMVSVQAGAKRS

brain uptake ([1]; intravenous into tail vein, uptake over time (FIG. 15)): high brain uptake
brain to blood ratio ([1]; intravenous, FIG. 15, suitable for nuclear imaging): good brain to blood ratio
Structure (SMILES): OCCCCN1CCC(=C(c2ccccc2)c2ccc(F)cc2)CC1 [Compound [^18F]6]
wash-out of tracer from the brain by P-glycoprotein [2]: consistently washed out of the brain by P-glycoprotein
